Measured values from patent US20250281523A1, “SULFATED GLYCOSAMINOGLYCAN COMPOUNDS, METHODS, AND USES THEREOF” (California Institute of Technology, priority 2024, published 2025).

Assays:
FGF4 = target: T1, FGF4 (Homo sapiens, UniProt P08620); assay: HS tetrasaccharide microarray binding assay, FGF4; settings: glycan microarray, compound 50 μM, normalized to the compound with greatest binding
T1 construct: purchased Peprotech
T1 sequence (P08620 31-206): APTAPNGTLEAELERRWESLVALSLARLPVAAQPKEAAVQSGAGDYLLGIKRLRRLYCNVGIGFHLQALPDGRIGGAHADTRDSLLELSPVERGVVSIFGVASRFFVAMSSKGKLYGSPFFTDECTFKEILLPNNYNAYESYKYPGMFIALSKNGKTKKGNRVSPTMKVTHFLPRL
Method: (§1) Heparan sulfate tetrasaccharide microarray fabrication. HS oligosaccharides were dissolved in sodium phosphate buffer (pH 8.5, 50 mM) in 9 concentrations: 200 μM, 100 μM, 50 μM, 25 μM, 12.5 μM, 6.25 μM, 3.13 μM, 1.57 μM, 0.79 μM. The robotic arrayer SX (from Scienion, Berlin, Germany) delivered 414 pL of the solution containing oligosaccharides (9 spots per concentration) to the array slides using dispensing nozzle PDC80, P-2040, under ˜50% relative humidity at 20° C. […] The slides were incubated in a chamber with saturated (NH4)2SO4 solution (81% relative humidity) for 24 h at 20° C., and unreacted HS oligosaccharides were removed from the slides by rinsing with deionized water. The remaining N-hydroxysuccinimide (NHS) ester groups were blocked by placing slides in a solution containing 50 mM ethanolamine in PBST (137 mM NaCl, 13 mM Na2HPO4, 1.6 mM NaH2PO4, 2.7 mM KCl, 0.010% Tween-20) at 50° C. for 1.5 h. Slides were rinsed several times with deionized water, dried by centrifugation, and stored before use.
(§2) HS tetrasaccharide microarray binding assay and array slide processing. The slide was blocked with 10% BSA in TBST (4.0 mL) with gentle rocking at RT for 1 h, followed by submerging in TBST. This condition was empirically determined to reduce nonspecific binding of proteins to the microarray and to provide optimal signal-to-noise ratios. Next, 5.0 μL of the primary detection protein ([…], 0.50 μg/mL) solution was transferred to 2.5 mL of TBST w/1% BSA in a chamber and the slide was incubated with gentle shaking for 1 h at RT. The slide was then washed two times for 5 min each in TBST (4.0 mL) while gently rocking. After the washes, the slide was incubated with the appropriate biotinylated antibody ([…], 0.50 μg/mL) in 1% BSA in TBST solution (3.0 mL) with gentle rocking for 1 h. The slide was then washed two times for 5 min in TBST (5.0 mL) while gently rocking. Next, the slide was incubated with 4.0 mL of Alexa Fluor 647-conjugated streptavidin detection solution (1.0 μg/mL in TBST w/1% BSA) in the dark with gentle rocking for 1 h, washed with TBST (5.0 mL, two times) followed by PBS (45 mL, two times) and ddH2O (45 mL, two times), and then dried under a gentle stream of 0.2 micron-filtered air. For his-tagged FGF2, detection was accomplished with an AF647-labeled anti-his antibody. All incubations and washes were carried out at RT unless otherwise noted. The microarray was scanned and analyzed at 647 nm using an Agilent G2565CA Microarray Scanner, and fluorescence quantification was performed using ImageJ software with correction for local background. To ensure accurate signal quantification, the average signal intensity was calculated over a fixed area for all spots. Results were plotted with Prism 9 software at a single concentration as background corrected fluorescence values normalized to the compound with the highest signal. Bar graphs represent the mean±SD for each compound (50 μM) in nonuplicate. Each experiment was performed 2-3 times. Heat maps were generated in Excel with columns sorted by sulfation status of the amino positions and rows sorted by sulfation status of the 2-O- and 6-O-hydroxyl groups.

FGF2 = target: T2, FGF2 (Homo sapiens, UniProt P09038); assay: HS tetrasaccharide microarray binding assay, FGF2; settings: glycan microarray; for relative binding of FGF2: compound 50 μM, normalized to the compound with greatest binding
T2 construct: purchased Sino Biological
T2 sequence (P09038 143-288): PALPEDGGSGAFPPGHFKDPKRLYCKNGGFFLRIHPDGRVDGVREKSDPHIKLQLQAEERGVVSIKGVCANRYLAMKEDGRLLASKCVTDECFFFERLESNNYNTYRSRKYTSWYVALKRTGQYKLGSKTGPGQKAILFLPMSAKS
Method: as §1, §2

CXCL8 (interleukin-8) = target: T3, CXCL8 (interleukin-8) (Homo sapiens, UniProt P10145); assay: HS tetrasaccharide microarray binding assay, CXCL8; settings: glycan microarray, compound 50 μM, normalized to the compound with greatest binding
T3 construct: recombinant human IL-8 (CXCL8) (77 a.a.) (>95% purity); purchased Peprotech
T3 sequence (P10145 23-99 limits assumed): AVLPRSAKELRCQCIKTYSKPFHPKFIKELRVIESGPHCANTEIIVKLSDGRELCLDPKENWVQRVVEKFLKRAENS
Method: as §1, §2

Row | Substance | relative binding of FGF4 (FGF4) | relative binding of FGF2 (FGF2) | relative binding of CXCL8 (CXCL8 (interleukin-8)) | FGF2 binding (in words) (FGF2)
1 | GlcNS6S-IdoA2S-GlcNAc-IdoA-R [Compound 43] | 16% |  |  | 
2 | GlcNS6S-IdoA-GlcNS6S-IdoA2S-R [Compound 52] |  | 45% | 43% | 
3 | GlcNS-IdoA2S-GlcNS6S-IdoA-R [Compound 36] |  |  | 49% | 
4 | GlcNS-IdoA-GlcNAc6S-IdoA-R [Compound 11] |  | 0.7% | 3.3% | 
5 | GlcNAc-IdoA2S-GlcNS6S-IdoA-R [Compound 34] |  |  |  | abolished FGF2 binding
6 | GlcNAc6S-IdoA2S-GlcNS-IdoA-R [Compound 42] |  |  |  | abolished FGF2 binding
7 | GlcNS-IdoA2S-GlcNS-IdoA2S-R [Compound 28] | 42% |  | 63% | 
8 | GlcNS6S-IdoA2S-GlcNS6S-IdoA2S-R [Compound 64] | 81% | 100% |  | 
9 | GlcNAc6S-IdoA2S-GlcNS6S-IdoA2S-R [Compound 62] | 27% | 28% |  | 
10 | GlcNS-IdoA2S-GlcNAc-IdoA2S-R [Compound 27] | 35% |  | 25% | 
11 | GlcNS-IdoA2S-GlcNAc-IdoA-R [Compound 15] | 16% |  |  | 
12 | GlcNS-IdoA2S-GlcNAc6S-IdoA-R [Compound 35] | 44% | 38% | 33% | 
13 | GlcNS6S-IdoA2S-GlcNS6S-IdoA-R [Compound 60] | 38% | 39% | 43% | 
14 | GlcNAc-IdoA2S-GlcNS-IdoA-R [Compound 14] |  |  |  | abolished FGF2 binding
15 | GlcNAc6S-IdoA2S-GlcNS6S-IdoA-R [Compound 58] | 10% |  |  | abolished FGF2 binding
16 | GlcNS-IdoA2S-GlcNAc6S-IdoA2S-R [Compound 47] | 95% |  | 100% | 
17 | GlcNS-IdoA-GlcNAc6S-IdoA2S-R [Compound 23] |  | 2% | 29% | abolished FGF2 binding

The next lines start with the values.

Row | relative binding of FGF4 (FGF4) | relative binding of FGF2 (FGF2) | relative binding of CXCL8 (CXCL8 (interleukin-8)) | FGF2 binding (in words) (FGF2) | Substance
18 | 49% | 77% | 61% |  | GlcNS-IdoA2S-GlcNS6S-IdoA2S-R [Compound 48]
19 |  |  | 63% |  | GlcNS-IdoA-GlcNS6S-IdoA2S-R [Compound 24]
20 | 56% | 63% |  |  | GlcNS6S-IdoA2S-GlcNS-IdoA2S-R [Compound 56]
21 | 83% |  | 53% |  | GlcNS6S-IdoA2S-GlcNAc6S-IdoA-R [Compound 59]
22 | 67% | 3% | 47% | abolished FGF2 binding | GlcNS6S-IdoA-GlcNAc6S-IdoA2S-R [Compound 51]
23 | 43% |  |  |  | GlcNS6S-IdoA2S-GlcNAc-IdoA2S-R [Compound 55]
24 |  |  | 43% |  | GlcNAc-IdoA2S-GlcNS-IdoA2S-R [Compound 26]
25 | 32% |  | 47% |  | GlcNAc-IdoA2S-GlcNS6S-IdoA2S-R [Compound 46]
26 | 43% | 2% | 17% |  | GlcNS6S-IdoA-GlcNAc6S-IdoA-R [Compound 39]
27 | 100% | 70% | 75% |  | GlcNS6S-IdoA2S-GlcNAc6S-IdoA2S-R [Compound 63]
28 | 52% | 3% |  |  | GlcNS6S-IdoA-GlcNS6S-IdoA-R [Compound 40]
29 |  |  |  | abolished FGF2 binding | GlcNS6S-IdoA-GlcNAc-IdoA2S-R [Compound 31]
30 |  |  |  | abolished FGF2 binding | GlcNS-IdoA-GlcNAc-IdoA2S-R [Compound 7]
31 |  | 2% |  |  | GlcNAc6S-IdoA2S-GlcNAc6S-IdoA2S-R [Compound 61]
